This is an account of results in patent US7153958B2, “Farnesyl transferase inhibiting benzoheterocyclic derivatives” (Janssen Pharmaceutica N.V., priority 2000, dated 2006).

Each structure is given as a SMILES string.

`Cn1cncc1C(O)(c1ccc(Cl)cc1)c1ccc2c(c1)C(c1cccc(Cl)c1)SCc1nnnn1-2` (stereo not drawn) had a melting point of 217 °C.

Molecule `O=C1CN=C(c2ccccc2)c2cc(C(c3ccc(Cl)cc3)n3ccnc3)ccc2N1` (racemic) yielded a melting point of 144 °C. The molecule `Cn1cncc1C(N)(c1ccc(Cl)cc1)c1ccc2c(c1)C(c1cccc(Cl)c1)=NCc1nnnn1-2` (stereo not drawn) registered a melting point of 218 °C. As for `CN1C(=O)CSC(c2cccc(Cl)c2)c2cc(C(N)(c3ccc(Cl)cc3)c3cncn3C)ccc21` (stereo not drawn), the figure is 218 °C; as for `Cn1cncc1C(c1ccc(Cl)cc1)c1ccc2c(c1)C(c1cccc(Cl)c1)SCC(=O)N2` (stereo not drawn), 187 °C. On to `Cn1cncc1C(O)(c1ccc(Cl)cc1)c1ccc2c(c1)C(c1cccc(Cl)c1)SCC(=O)N2` (stereo not drawn), for which the melting point was found to be 210 °C. The figure for `CN1C(=O)CNC(c2cccc(Cl)c2)c2cc(C(O)(c3ccc(Cl)cc3)c3cncn3C)ccc21` (stereo not drawn) [Example B5, 5-(3-chlorophenyl)-7-[(4-chlorophenyl)hydroxy(1-methyl-1H-imidazol-5-yl)methyl]-1,3,4,5-tetrahydro-1-methyl-2H-1,4-benzodiazepin-2-one] is 208 °C; for `CN1C(=O)CN=C(c2cccc(Cl)c2)c2cc(C(N)(c3ccc(Cl)cc3)c3cncn3C)ccc21` (stereo not drawn) it is 213 °C; for `CN1C(=O)CSC(c2cccc(Cl)c2)c2cc(C(O)(c3ccc(Cl)cc3)c3cncn3C)ccc21` (stereo not drawn) it is 186 °C. Molecule `Cn1cncc1C(O)(c1ccc(Cl)cc1)c1ccc2c(c1)C(c1cccc(Cl)c1)=NCC(=O)N2` (stereo not drawn) displayed a melting point of 200 °C. As for `Cn1cncc1C(O)(c1ccc(Cl)cc1)c1ccc2c(c1)C(c1cccc(Cl)c1)OCC(=S)N2` (stereo not drawn) [Example B7, 5-(3-chlorophenyl)-7-[(4-chlorophenyl)hydroxy(1-methyl-1H-imidazol-5-yl)methyl]-1,5-dihydro-4,1-benzoxazepine-2(3H)-thione], the figure is greater than 300 °C; as for `Cn1cncc1C(O)(c1ccc(Cl)cc1)c1ccc2c(c1)C(c1cccc(Cl)c1)SCC(=O)N2CC1CC1` (stereo not drawn), 245 °C. For `Cn1cncc1C(c1ccc(Cl)cc1)c1ccc2c(c1)C(c1cccc(Cl)c1)SCc1nnnn1-2` (stereo not drawn), the melting point was 162 °C. The molecule `Cn1cncc1C(O)(c1ccc(Cl)cc1)c1ccc2c(c1)C(c1cccc(Cl)c1)OCC(=O)N2` (stereo not drawn) [Example B1, 5-(3-chlorophenyl)-7-[(4-chlorophenyl)hydroxy(1-methyl-1H-imidazol-5-yl)methyl]-1,5-dihydro-4,1-benzoxazepin-2(3H)-one] gave a melting point of 260 °C.

In the case of `Cn1cncc1C(O)(c1ccc(Cl)cc1)c1ccc2c(c1)C(c1cccc(Cl)c1)=NCc1nnnn1-2` (stereo not drawn), the melting point came to 240 °C. The figure for `Cn1cncc1C(c1ccc(Cl)cc1)c1ccc2c(c1)C(c1cccc(Cl)c1)SCCC(=O)N2` (stereo not drawn) is 199 °C. As for `CN1C(=O)COC(c2cccc(Cl)c2)c2cc(C(O)(c3ccc(Cl)cc3)c3cncn3C)ccc21` (stereo not drawn) [Example B3, 5-(3-chlorophenyl)-7-[(4-chlorophenyl)hydroxy(1-methyl-1H-imidazol-5-yl)methyl]-1,5-dihydro-1-methyl-4,1-benzoxazepin-2(3H)-one], the figure is 160 °C; as for `CN1C(=O)CN=C(c2cccc(Cl)c2)c2cc(C(O)(c3ccc(Cl)cc3)c3cncn3C)ccc21` (stereo not drawn), 226 °C.

What is called melting point is the temperature of the solid-liquid transition.
